Data taken from patent publication US8592422B2, “Bicyclic triazole and pyrazole lactams as allosteric modulators of mGluR5 receptors” (Vanderbilt University, priority 2010, dated 2013).
Read-outs that look alike come from different tables or passages of the source.

Assays:
human mGluR5a receptor = molecular target: T1, human mGluR5a receptor (Homo sapiens, UniProt P41594); experiment: Cell-based functional Ca2+ mobilization assay (FDSS), potentiation of glutamate EC20 response; conditions: for EC50: HEK cells transfected with human mGluR5 (H10H or H12H), in presence of EC20 glutamate; for Emax: maximum % effect in concentration-response curve, as percent of response to maximally effective glutamate
T1 construct: cDNA subcloned into pcDNA3.1(-)
How it was run: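 HEK293A cells stably expressing human mGluR5a (H10H or H12H clones), plated overnight in glutamate-glutamine-free medium, loaded with Ca2+-sensitive dye (e.g. Fluo-4) and read on FDSS.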

T1 sequence (P41594 21-1180 isoform P41594-2 limits assumed): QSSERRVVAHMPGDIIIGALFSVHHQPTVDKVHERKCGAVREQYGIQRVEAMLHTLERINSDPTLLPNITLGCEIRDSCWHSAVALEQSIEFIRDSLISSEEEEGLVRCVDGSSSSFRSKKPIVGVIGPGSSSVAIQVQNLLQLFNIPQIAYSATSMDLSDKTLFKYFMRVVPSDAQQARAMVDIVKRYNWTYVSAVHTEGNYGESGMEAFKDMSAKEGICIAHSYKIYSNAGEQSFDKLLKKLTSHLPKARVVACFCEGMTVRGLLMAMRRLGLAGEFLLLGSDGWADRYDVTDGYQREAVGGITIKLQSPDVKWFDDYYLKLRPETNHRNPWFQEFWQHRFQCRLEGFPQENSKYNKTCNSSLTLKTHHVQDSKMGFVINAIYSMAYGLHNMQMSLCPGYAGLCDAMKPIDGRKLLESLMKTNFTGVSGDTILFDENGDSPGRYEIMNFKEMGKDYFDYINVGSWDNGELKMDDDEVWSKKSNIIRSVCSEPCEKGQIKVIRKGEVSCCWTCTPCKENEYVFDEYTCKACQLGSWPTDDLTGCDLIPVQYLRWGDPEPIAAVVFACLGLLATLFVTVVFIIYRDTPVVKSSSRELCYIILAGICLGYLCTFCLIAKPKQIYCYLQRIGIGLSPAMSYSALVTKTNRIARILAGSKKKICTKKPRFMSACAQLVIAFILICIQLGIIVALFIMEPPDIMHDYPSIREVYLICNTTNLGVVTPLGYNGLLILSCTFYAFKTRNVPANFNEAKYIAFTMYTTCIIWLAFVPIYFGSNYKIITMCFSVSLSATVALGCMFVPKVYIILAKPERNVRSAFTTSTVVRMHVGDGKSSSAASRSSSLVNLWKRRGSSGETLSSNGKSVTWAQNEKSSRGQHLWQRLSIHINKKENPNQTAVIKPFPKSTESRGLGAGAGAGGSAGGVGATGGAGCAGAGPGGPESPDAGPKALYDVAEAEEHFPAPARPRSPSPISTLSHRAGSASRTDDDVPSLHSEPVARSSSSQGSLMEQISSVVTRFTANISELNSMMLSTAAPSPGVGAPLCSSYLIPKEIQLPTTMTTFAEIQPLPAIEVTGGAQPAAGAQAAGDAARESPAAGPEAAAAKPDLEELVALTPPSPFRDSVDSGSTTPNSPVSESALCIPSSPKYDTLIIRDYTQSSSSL

Row | SMILES | EC50 (human mGluR5a receptor; read-out: EC50) [nM] | Emax (human mGluR5a receptor) [%] | melting point [°C] | EC50 (human mGluR5a receptor; read-out: pEC50 (converted)) [nM] | EC50 (human mGluR5a receptor; EC50 (nM)) [nM]
1 | Cc1ccnc(N2CCn3nc(COc4ccccc4)cc3C2=O)c1 [Example 17] | 490 | 72 | 131.3 |  | 
2 | Cc1cncc(N2CCn3nc(COc4ccccc4)cc3C2=O)c1 [Example 22] | 1200 | 74 | 155.3 |  | 
3 | Cc1ccc(N2CCn3nc(COc4ccccc4)cc3C2=O)cn1 [Example 23] | 1200 | 81 | > 300 |  | 
4 | O=C1c2cc(COc3ccccc3)nn2CCN1CC(F)(F)F [Example 24] | 2820 | 78 | 132.1 | 1660 | 
5 | CC(C)N1CCn2nc(COc3ccccc3)cc2C1=O [Example 25] | 1860 | 53 | > 300 |  | 
6 | O=C1c2cc(COc3ccccc3)nn2CCN1CC1CCC1 [Example 27] | 92 | 80 | > 300 |  | 
7 | O=C1c2cc(COc3ccccc3)nn2CCN1CC1CC1(F)F (centres unmarked) [Example 28] | 174 | 60 | 180.2 |  | 
8 | O=C1c2cc(COc3ccccc3)nn2CCN1c1cncnc1 [Example 31] | > 10000 | 58 | 240 |  | 
9 | Cc1ncc(N2CCn3nc(COc4ccccc4)cc3C2=O)cn1 [Example 33] | > 10000 | 67 | 283.4 |  | 
10 | COc1ccccc1N1CCn2nc(COc3ccccc3)cc2C1=O [Example 47] | 93 | 65 | 145.8 |  | 
11 | CCOc1cccc(N2CCn3nc(COc4ccccc4)cc3C2=O)c1 [Example 59] | 130 | 57 | 115.8 |  | 
12 | CC(C)CCc1cccc(N2CCn3nc(COc4ccccc4)cc3C2=O)n1 [Example 65] | 363 | 74 | 76.7 |  | 
13 | O=C1c2cc(COc3ccccc3)nn2CCN1c1ncccc1Cl [Example 68] | 324 | 68 | 127.5 |  | 
14 | Cc1cc(N2CCn3nc(COc4ccccc4)cc3C2=O)ncc1F [Example 72] | 91 | 72 | 134.7 |  | 
15 | O=C1c2cc(COc3ccccc3)nn2CCN1c1cccc(CF)n1 [Example 76] | 66 | 69 | 111.3 |  | 
16 | COc1ccnc(N2CCn3nc(COc4ccccc4)cc3C2=O)n1 [Example 78] | 490 | 69 | 144.5 |  | 
17 | O=C1c2cc(COc3ccccc3)nn2CCN1c1ccncn1 [Example 80] | 1290 | 71 | 148.9 |  | 
18 | Cc1cc(N2CCn3nc(COc4ccccc4)cc3C2=O)ncn1 [Example 83] | 891 | 65 | 143.7 |  | 
19 | Cc1ccc(N2CCn3nc(COc4ccccc4)cc3C2=O)nn1 [Example 84] | > 10000 | 53 | 166.7 |  | 
20 | O=C1c2cc(COc3ccccc3)nn2CCN1c1cnccn1 [Example 87] | 813 | 56 | 239.3 |  | 

Row | SMILES | EC50 (human mGluR5a receptor; read-out: EC50) [nM] | Emax (human mGluR5a receptor) [%] | melting point [°C] | EC50 (human mGluR5a receptor; read-out: pEC50 (converted)) [nM] | EC50 (human mGluR5a receptor; EC50 (nM)) [nM]
21 | Cc1nc(N2CCn3nc(COc4ccccc4)cc3C2=O)ncc1F [Example 90] | 575 | 67 | 177.1 |  | 
22 | COc1cc(C)nc(N2CCn3nc(COc4ccccc4)cc3C2=O)n1 [Example 99] | 646 | 67 | 183.7 |  | 
23 | Cc1cnc(N2CCn3nc(COc4ccccc4)cc3C2=O)cn1 [Example 100] | 955 | 67 | 235.5 |  | 
24 | COc1nc(N2CCn3nc(COc4ccccc4)cc3C2=O)cnc1C [Example 102] | 120 | 69 | 158.1 |  | 
25 | COc1cc(C)cc(N2CCn3nc(COc4ccccc4)cc3C2=O)n1 [Example 104] | 54 | 67 | 140.9 |  | 
26 | COc1cc(N2CCn3nc(COc4ccccc4)cc3C2=O)nc(C)n1 [Example 105] | 219 | 53 | 131.9 |  | 
27 | COc1cnc(N2CCn3nc(COc4ccccc4)cc3C2=O)nc1OC [Example 107] | 347 | 63 | 169.6 |  | 
28 | COc1nc(N2CCn3nc(COc4ccccc4)cc3C2=O)ccc1C [Example 108] |  | 64 | 145.3 | 17.8 | 
29 | CC(C)c1cccc(N2CCn3nc(COc4ccccc4)cc3C2=O)n1 [Example 111] | 93 | 68 | 101.8 |  | 
30 | COc1ccc(N2CCn3nc(COc4ccccc4)cc3C2=O)c(C)n1 [Example 114] | 100 | 68 | 136.3 |  | 
31 | Cc1ccc(N2CCn3nc(COc4ccccc4)cc3C2=O)c(C)n1 [Example 116] | 310 | 62 | > 300 |  | 
32 | Cc1cnc(C)c(N2CCn3nc(COc4ccccc4)cc3C2=O)n1 [Example 120] | 750 | 67 | 141.7 |  | 
33 | O=C1c2cc(COc3ccccc3)nn2CCN1c1ncc(F)cn1 [Example 126] |  | 71 | 161.3 |  | 780
34 | Cc1nc(N2CC(C)n3nc(COc4ccccc4)cc3C2=O)ccc1F (centres unmarked) [Example 134] | 63 | 70 | 87.4 |  | 
35 | C[C@@H]1Cn2nc(COc3ccccc3)cc2C(=O)N1CC1CC1 [Example 137] | 240 | 66 | 64.6 |  | 
36 | Cc1nc(N2C(=O)c3cc(COc4ccccc4)nn3C[C@@H]2C)ccc1F [Example 138] | 316 | 59 | 93.3 |  | 
37 | Cc1nc(N2C(=O)c3cc(COc4ccccc4)nn3C[C@H]2C)ccc1F [Example 140] | 170 | 68 | 156 |  | 
38 | C[C@@H]1Cn2nc(COc3ccccc3)cc2C(=O)N1c1ccc(F)cn1 [Example 141] | 195 | 66 | 71.9 |  | 
39 | COc1cc(N2C(=O)c3cc(COc4ccccc4)nn3C[C@H]2C)ccc1F [Example 143] | 81 | 62 | 135.8 |  | 
40 | Cc1cc(N2C(=O)c3cc(COc4ccccc4)nn3C[C@H]2C)ccc1F [Example 144] |  | 70 | 94.6 | 32.4 | 

Row | SMILES | EC50 (human mGluR5a receptor; read-out: EC50) [nM] | Emax (human mGluR5a receptor) [%] | melting point [°C] | EC50 (human mGluR5a receptor; read-out: pEC50 (converted)) [nM] | EC50 (human mGluR5a receptor; EC50 (nM)) [nM]
41 | COc1ncccc1N1C(=O)c2cc(COc3ccccc3)nn2C[C@H]1C [Example 148] | 174 | 71 | 145.5 |  | 
42 | COc1nccnc1N1C(=O)c2cc(COc3ccccc3)nn2C[C@H]1C [Example 149] | 794 | 64 | 104.9 |  | 
43 | Cc1ccccc1N1C(=O)c2cc(COc3ccccc3)nn2C[C@H]1C [Example 154] | 29 | 72 | 171.5 | 29.5 | 
44 | Cc1cc(N2C(=O)c3cc(COc4ccccc4)nn3C[C@H]2C)ncc1F [Example 155] | 130 | 62 | 99.3 |  | 
45 | COc1nc(N2C(=O)c3cc(COc4ccccc4)nn3C[C@H]2C)ncc1C [Example 156] | 540 | 79 | > 300 |  | 
46 | O=C1c2cc(COc3ccncc3)nn2CCN1c1ccc(F)cc1 [Example 160] | 631 | 68 | 149.5 |  | 
47 | Cc1cccc(OCc2cc3n(n2)CCN(c2ccc(F)cc2)C3=O)c1 [Example 166] | 95 | 64 | 182.5 |  | 
48 | O=C1c2cc(COc3cncc(F)c3)nn2CCN1CC1CC1 [Example 171] | > 10000 | 51 | 110.7 |  | 
49 | Cc1cc(OCc2cc3n(n2)CCN(c2ccc(F)cc2)C3=O)ccn1 [Example 174] | 1260 | 34 | > 300 |  | 
50 | O=C1c2cc(COc3cccc(F)c3)nn2CCN1c1ccc(F)cn1 [Example 178] | 115 | 61 | > 300 |  | 
51 | O=C1c2cc(COc3ccc(F)cc3)nn2CCN1c1ccc(F)cn1 [Example 179] | 151 | 60 | > 300 |  | 
52 | O=C1c2cc(COc3ccc(F)cn3)nn2CCN1c1ccc(F)cc1 [Example 181] | > 10000 | 52 | 239.4 |  | 
53 | Cc1ccc(OCc2cc3n(n2)CCN(c2ccc(F)cc2)C3=O)nc1 [Example 183] | > 30200 | 15 | 236.2 |  | 
54 | Cc1cccnc1OCc1cc2n(n1)CCN(c1ccc(F)cc1)C2=O [Example 185] | > 10000 | 51 | 270.1 |  | 
55 | O=C1c2cc(COc3ncccc3F)nn2CCN1c1ccc(F)cc1 [Example 187] | 2190 | 60 | 165 |  | 
56 | Cc1cnccc1OCc1cc2n(n1)CCN(c1ccc(F)cc1)C2=O [Example 189] | 4900 | 45 | 168.3 |  | 
57 | O=C1c2cc(COc3ccccc3F)nn2CCN1c1ccc(F)cc1 [Example 190] |  | 66 | 183.3 |  | 145
58 | Cc1ccccc1OCc1cc2n(n1)CCN(c1ccc(F)cc1)C2=O [Example 191] | 427 | 57 | 132.8 |  | 
